PubChem BioAssay (NCI)
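Five concentrations, 48 hours, 96-well plates. At the GI50, growth is halved. TGI: concentration producing complete growth inhibition.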

Legend:
Assay in all cases: DTP human tumour cell line panel, 48 h
HS 578T breast = tested on: HS 578T breast
MDA-MB-468 breast = tested on: MDA-MB-468 breast
OVCAR-8 ovarian = tested on: OVCAR-8 ovarian
CAKI-1 renal = tested on: CAKI-1 renal
SK-OV-3 ovarian = tested on: SK-OV-3 ovarian
SNB-75 CNS = tested on: SNB-75 CNS
SN12C renal = tested on: SN12C renal
SF-268 CNS = tested on: SF-268 CNS
SW-620 colon = tested on: SW-620 colon
MOLT-4 leukemia = tested on: MOLT-4 leukemia
MCF7 breast = tested on: MCF7 breast
HL-60(TB) leukemia = tested on: HL-60(TB) leukemia
OVCAR-5 ovarian = tested on: OVCAR-5 ovarian
NCI-H460 lung = tested on: NCI-H460 lung
SF-539 CNS = tested on: SF-539 CNS
U251 CNS = tested on: U251 CNS
NCI-H226 lung = tested on: NCI-H226 lung
NCI-H522 lung = tested on: NCI-H522 lung
SK-MEL-5 melanoma = tested on: SK-MEL-5 melanoma
SF-295 CNS = tested on: SF-295 CNS
TK-10 renal = tested on: TK-10 renal
MALME-3M melanoma = tested on: MALME-3M melanoma
IGROV1 ovarian = tested on: IGROV1 ovarian
HT29 colon = tested on: HT29 colon
NCI-H23 lung = tested on: NCI-H23 lung
CCRF-CEM leukemia = tested on: CCRF-CEM leukemia
UACC-257 melanoma = tested on: UACC-257 melanoma
EKVX NSCLC = tested on: EKVX NSCLC
LOX IMVI melanoma = tested on: LOX IMVI melanoma
PC-3 prostate = tested on: PC-3 prostate
SK-MEL-2 melanoma = tested on: SK-MEL-2 melanoma
A498 renal = tested on: A498 renal
BT-549 breast = tested on: BT-549 breast
DU-145 prostate = tested on: DU-145 prostate
HCC-2998 colon = tested on: HCC-2998 colon
NCI/ADR-RES ovarian = tested on: NCI/ADR-RES ovarian
M14 melanoma = tested on: M14 melanoma
ACHN renal = tested on: ACHN renal
SK-MEL-28 melanoma = tested on: SK-MEL-28 melanoma
K-562 leukemia = tested on: K-562 leukemia
HCT-15 colon = tested on: HCT-15 colon
HOP-92 NSCLC = tested on: HOP-92 NSCLC
RXF 393 renal = tested on: RXF 393 renal
786-0 renal = tested on: 786-0 renal
HOP-62 NSCLC = tested on: HOP-62 NSCLC
COLO 205 colon = tested on: COLO 205 colon
UACC-62 melanoma = tested on: UACC-62 melanoma
A549 NSCLC = tested on: A549 NSCLC
RPMI-8226 leukemia = tested on: RPMI-8226 leukemia
OVCAR-4 ovarian = tested on: OVCAR-4 ovarian
KM12 colon = tested on: KM12 colon
MDA-MB-435 = tested on: MDA-MB-435
OVCAR-3 ovarian = tested on: OVCAR-3 ovarian
HCT-116 colon = tested on: HCT-116 colon

`C=C1CC[C@@H]2[C@]3(C)COC(c4cn[nH]c4-c4ccc(Br)cc4)O[C@@H]3CC[C@@]2(C)[C@@H]1C/C=C1/C(=O)OCC1O` (stereo partly drawn) showed a GI50 (HS 578T breast) of 17.7 µM, a TGI (HS 578T breast) greater than 100 µM and a GI50 (MDA-MB-468 breast) of 2.47 µM. It also gave a TGI (MDA-MB-468 breast) of 9.41 µM, a GI50 (OVCAR-8 ovarian) of 3.24 µM and a TGI (OVCAR-8 ovarian) of 61.9 µM. It also gave a GI50 (CAKI-1 renal) of 8.18 µM, a TGI (CAKI-1 renal) of 22 µM and a GI50 (SK-OV-3 ovarian) of 16.8 µM. It also gave a TGI (SK-OV-3 ovarian) of 32.2 µM, a GI50 (SNB-75 CNS) of 7.04 µM and a TGI (SNB-75 CNS) of 25.7 µM. The GI50 (SN12C renal) was 7.51 µM, the TGI (SN12C renal) was 21.5 µM and the GI50 (SF-268 CNS) was 16.5 µM. For the same compound, the TGI (SF-268 CNS) was 42.3 µM, the GI50 (SW-620 colon) was 2.33 µM and the TGI (SW-620 colon) was 6.36 µM. It also gave a GI50 (MOLT-4 leukemia) of 2.86 µM, a TGI (MOLT-4 leukemia) of 13.6 µM and a GI50 (MCF7 breast) of 2.13 µM. For the same compound, the TGI (MCF7 breast) was 10.4 µM, the GI50 (HL-60(TB) leukemia) was 2.3 µM and the TGI (HL-60(TB) leukemia) was 17.6 µM. The GI50 (OVCAR-5 ovarian) was 10 µM, the TGI (OVCAR-5 ovarian) was 23.1 µM and the GI50 (NCI-H460 lung) was 12.6 µM. The TGI (NCI-H460 lung) was 29.7 µM, the GI50 (SF-539 CNS) was 2.2 µM and the TGI (SF-539 CNS) was 5.67 µM. It also gave a GI50 (U251 CNS) of 6.83 µM, a TGI (U251 CNS) of 19.9 µM and a GI50 (NCI-H226 lung) of 1.93 µM. It also gave a TGI (NCI-H226 lung) of 4.32 µM, a GI50 (NCI-H522 lung) of 2.08 µM and a TGI (NCI-H522 lung) of 5.75 µM. For the same compound, the GI50 (SK-MEL-5 melanoma) was 10.4 µM, the TGI (SK-MEL-5 melanoma) was 23.4 µM and the GI50 (SF-295 CNS) was 12.1 µM. It also gave a TGI (SF-295 CNS) of 25.4 µM, a GI50 (TK-10 renal) of 18.4 µM and a TGI (TK-10 renal) of 33.4 µM. It also gave a GI50 (MALME-3M melanoma) of 3.98 µM, a TGI (MALME-3M melanoma) of 17.7 µM and a GI50 (IGROV1 ovarian) of 13.8 µM. For the same compound, the TGI (IGROV1 ovarian) was 30.9 µM, the GI50 (HT29 colon) was 2.8 µM and the TGI (HT29 colon) was 10.5 µM. It also gave a GI50 (NCI-H23 lung) of 10.5 µM, a TGI (NCI-H23 lung) of 23.1 µM and a GI50 (CCRF-CEM leukemia) of 2.81 µM. It also gave a TGI (CCRF-CEM leukemia) of 44.2 µM, a GI50 (UACC-257 melanoma) of 11.8 µM and a TGI (UACC-257 melanoma) of 27.5 µM. It also gave a GI50 (EKVX NSCLC) of 4.68 µM, a TGI (EKVX NSCLC) of 17.7 µM and a GI50 (LOX IMVI melanoma) of 1.37 µM. For the same compound, the TGI (LOX IMVI melanoma) was 2.72 µM, the GI50 (PC-3 prostate) was 4.08 µM and the TGI (PC-3 prostate) was 30.3 µM. The GI50 (SK-MEL-2 melanoma) was 5.85 µM, the TGI (SK-MEL-2 melanoma) was 20.8 µM and the GI50 (A498 renal) was 16.8 µM. The TGI (A498 renal) was 30.6 µM, the GI50 (BT-549 breast) was 2.88 µM and the TGI (BT-549 breast) was 12.3 µM. For the same compound, the GI50 (DU-145 prostate) was 8.24 µM, the TGI (DU-145 prostate) was 23.6 µM and the GI50 (HCC-2998 colon) was 9.11 µM. It also gave a TGI (HCC-2998 colon) of 21.4 µM, a GI50 (NCI/ADR-RES ovarian) of 2.2 µM and a TGI (NCI/ADR-RES ovarian) of 6.91 µM. It also gave a GI50 (M14 melanoma) of 3.4 µM, a TGI (M14 melanoma) of 16.7 µM and a GI50 (ACHN renal) of 2.16 µM. The TGI (ACHN renal) was 6.16 µM, the GI50 (SK-MEL-28 melanoma) was 2.13 µM and the TGI (SK-MEL-28 melanoma) was 4.95 µM. The GI50 (K-562 leukemia) was 2.24 µM, the TGI (K-562 leukemia) was 15.4 µM and the GI50 (HCT-15 colon) was 1.97 µM. For the same compound, the TGI (HCT-15 colon) was 5.3 µM, the GI50 (HOP-92 NSCLC) was 5.08 µM and the TGI (HOP-92 NSCLC) was 22.7 µM. It also gave a GI50 (RXF 393 renal) of 1.9 µM, a TGI (RXF 393 renal) of 4.42 µM and a GI50 (786-0 renal) of 5.75 µM. It also gave a TGI (786-0 renal) of 18.8 µM, a GI50 (HOP-62 NSCLC) of 18.9 µM and a TGI (HOP-62 NSCLC) of 37.3 µM. For the same compound, the GI50 (COLO 205 colon) was 4.45 µM, the TGI (COLO 205 colon) was 18.1 µM and the GI50 (UACC-62 melanoma) was 3.44 µM. It also gave a TGI (UACC-62 melanoma) of 15.8 µM, a GI50 (A549 NSCLC) of 11.1 µM and a TGI (A549 NSCLC) of 26.4 µM. The GI50 (RPMI-8226 leukemia) was 2.56 µM, the TGI (RPMI-8226 leukemia) was greater than 100 µM and the GI50 (OVCAR-4 ovarian) was 5.02 µM. It also gave a TGI (OVCAR-4 ovarian) of 32.8 µM, a GI50 (KM12 colon) of 7.16 µM and a TGI (KM12 colon) of 29.2 µM. The GI50 (MDA-MB-435) was 3.24 µM, the TGI (MDA-MB-435) was 15.3 µM and the GI50 (OVCAR-3 ovarian) was 2.08 µM. It also gave a TGI (OVCAR-3 ovarian) of 4.49 µM, a GI50 (HCT-116 colon) of 1.94 µM and a TGI (HCT-116 colon) of 5.19 µM.
